# Species: Rattus norvegicus
# Assay: DrugMatrix - Regimen: Daily Repeat
# Format: toxicity, organism-based, Sprague-Dawley
# Set-up: regimen Daily Repeat, gender Male, age 6-8 weeks
# Settings: in vivo, iv, vehicle 100 % SALINE; for ABSOLUTE BASOPHIL / ABSOLUTE EOSINOPHIL / ABSOLUTE LYMPHOCYTE / ABSOLUTE MONOCYTE / ABSOLUTE SEGMENTED NEUTROPHIL / BASOPHIL / EOSINOPHIL / ERYTHROCYTE COUNT / HEMATOCRIT / HEMOGLOBIN / LEUKOCYTE COUNT / LYMPHOCYTE / MEAN CORPUSCULAR HEMOGLOBIN / MEAN CORPUSCULAR HEMOGLOBIN CONCENTRATION / MEAN CORPUSCULAR VOLUME / MONOCYTE / NEUTROPHIL / NUCLEATED RED BLOOD CELLS: tissue Blood; for ALANINE AMINOTRANSFERASE / ALKALINE PHOSPHATASE / ASPARTATE AMINOTRANSFERASE / BLOOD UREA NITROGEN / CARBON DIOXIDE / CHOLESTEROL / CREATINE PHOSPHOKINASE / CREATININE / GLUCOSE / LACTATE DEHYDROGENASE / LIPASE / SODIUM / TOTAL BILIRUBIN / TOTAL PROTEIN / URIC ACID: tissue Plasma
# [1] = 0 mg/kg, 72 h, dose level Control, time 3 day
# [2] = 0 mg/kg, 120 h, dose level Control, time 5 day
# [3] = […], 72 h, dose 0.27 mg/Kg, dose level Low, time 3 day
# [4] = […], 72 h, dose 2.7 mg/Kg, dose level High, time 3 day
smiles,measurement,setting,value
COc1cccc2c1C(=O)c1c(O)c3c(c(O)c1C2=O)C[C@@](O)(C(=O)CO)C[C@@H]3O[C@H]1C[C@H](N)[C@@H](O)[C@H](C)O1 [EPIRUBICIN],ABSOLUTE BASOPHIL,[1],0 CELLS/uL
same,ABSOLUTE EOSINOPHIL,[1],23.17 CELLS/uL
same,ABSOLUTE LYMPHOCYTE,[1],12448.83 CELLS/uL
same,ABSOLUTE MONOCYTE,[1],259.5 CELLS/uL
same,ABSOLUTE SEGMENTED NEUTROPHIL,[1],1635.17 CELLS/uL
same,BASOPHIL,[1],0%
same,EOSINOPHIL,[1],0.17%
same,ERYTHROCYTE COUNT,[1],5.35 x10E6/uL
same,HEMATOCRIT,[1],34.85%
same,HEMOGLOBIN,[1],13.72 G/DL
same,LEUKOCYTE COUNT,[1],14.37 x10E3/uL
same,LYMPHOCYTE,[1],86.5%
same,MEAN CORPUSCULAR HEMOGLOBIN,[1],25.67 pg
same,MEAN CORPUSCULAR HEMOGLOBIN CONCENTRATION,[1],39.38 G/DL
same,MEAN CORPUSCULAR VOLUME,[1],65.2 fL
same,MONOCYTE,[1],1.83%
same,NEUTROPHIL,[1],11.5%
same,NUCLEATED RED BLOOD CELLS,[1],0 /100WBC
same,ALANINE AMINOTRANSFERASE,[1],56.5 u/L
same,ALKALINE PHOSPHATASE,[1],334 u/L
same,ASPARTATE AMINOTRANSFERASE,[1],85.5 u/L
same,BLOOD UREA NITROGEN,[1],16.33 mg/dL
same,CARBON DIOXIDE,[1],26.5 mmol/L
same,CHOLESTEROL,[1],70.33 mg/dL
same,CREATINE PHOSPHOKINASE,[1],339.5 u/L
same,CREATININE,[1],0.18 mg/dL
same,GLUCOSE,[1],155.17 mg/dL
same,LACTATE DEHYDROGENASE,[1],382 u/L
same,LIPASE,[1],9.5 u/L
same,SODIUM,[1],143.87 MEQ/L
same,TOTAL BILIRUBIN,[1],0.2 mg/dL
same,TOTAL PROTEIN,[1],5.98 G/DL
same,URIC ACID,[1],1.53 mg/dL
same,ABSOLUTE BASOPHIL,[2],0 CELLS/uL
same,ABSOLUTE EOSINOPHIL,[2],16.17 CELLS/uL
same,ABSOLUTE LYMPHOCYTE,[2],10653.67 CELLS/uL
same,ABSOLUTE MONOCYTE,[2],17.17 CELLS/uL
same,ABSOLUTE SEGMENTED NEUTROPHIL,[2],746.33 CELLS/uL
same,BASOPHIL,[2],0%
same,EOSINOPHIL,[2],0.17%
same,ERYTHROCYTE COUNT,[2],5.88 x10E6/uL
same,HEMATOCRIT,[2],36.68%
same,HEMOGLOBIN,[2],14.6 G/DL
same,LEUKOCYTE COUNT,[2],11.43 x10E3/uL
same,LYMPHOCYTE,[2],91.83%
same,MEAN CORPUSCULAR HEMOGLOBIN,[2],24.85 pg
same,MEAN CORPUSCULAR HEMOGLOBIN CONCENTRATION,[2],39.8 G/DL
same,MEAN CORPUSCULAR VOLUME,[2],62.47 fL
same,MONOCYTE,[2],0.17%
same,NEUTROPHIL,[2],7.83%
same,NUCLEATED RED BLOOD CELLS,[2],0 /100WBC
same,ALANINE AMINOTRANSFERASE,[2],45.5 u/L
same,ALKALINE PHOSPHATASE,[2],330.17 u/L
same,ASPARTATE AMINOTRANSFERASE,[2],93.33 u/L
same,BLOOD UREA NITROGEN,[2],18 mg/dL
same,CARBON DIOXIDE,[2],25.5 mmol/L
same,CHOLESTEROL,[2],73.5 mg/dL
same,CREATINE PHOSPHOKINASE,[2],434 u/L
same,CREATININE,[2],0.2 mg/dL
same,GLUCOSE,[2],148.83 mg/dL
same,LACTATE DEHYDROGENASE,[2],603.83 u/L
same,LIPASE,[2],10 u/L
same,SODIUM,[2],139.78 MEQ/L
same,TOTAL BILIRUBIN,[2],0.15 mg/dL
same,TOTAL PROTEIN,[2],6.1 G/DL
same,URIC ACID,[2],2.02 mg/dL
same,ABSOLUTE BASOPHIL,[3],0 CELLS/uL
same,ABSOLUTE EOSINOPHIL,[3],28 CELLS/uL
same,ABSOLUTE LYMPHOCYTE,[3],4991.67 CELLS/uL
same,ABSOLUTE MONOCYTE,[3],38 CELLS/uL
same,ABSOLUTE SEGMENTED NEUTROPHIL,[3],375.67 CELLS/uL
same,BASOPHIL,[3],0%
same,EOSINOPHIL,[3],0.67%
same,ERYTHROCYTE COUNT,[3],4.95 x10E6/uL
same,HEMATOCRIT,[3],31.43%
same,HEMOGLOBIN,[3],12.5 G/DL
same,LEUKOCYTE COUNT,[3],5.43 x10E3/uL
same,LYMPHOCYTE,[3],91.67%
same,MEAN CORPUSCULAR HEMOGLOBIN,[3],25.3 pg
same,MEAN CORPUSCULAR HEMOGLOBIN CONCENTRATION,[3],39.8 G/DL
same,MEAN CORPUSCULAR VOLUME,[3],63.57 fL
same,MONOCYTE,[3],0.67%
same,NEUTROPHIL,[3],7%
same,NUCLEATED RED BLOOD CELLS,[3],0 /100WBC
same,ABSOLUTE BASOPHIL,[4],0 CELLS/uL
same,ABSOLUTE EOSINOPHIL,[4],0 CELLS/uL
same,ABSOLUTE LYMPHOCYTE,[4],4049.67 CELLS/uL
same,ABSOLUTE MONOCYTE,[4],29.33 CELLS/uL
same,ABSOLUTE SEGMENTED NEUTROPHIL,[4],387.67 CELLS/uL
same,BASOPHIL,[4],0%
same,EOSINOPHIL,[4],0%
same,ERYTHROCYTE COUNT,[4],5.35 x10E6/uL
same,HEMATOCRIT,[4],33.77%
same,HEMOGLOBIN,[4],13.47 G/DL
same,LEUKOCYTE COUNT,[4],4.47 x10E3/uL
same,LYMPHOCYTE,[4],90.67%
same,MEAN CORPUSCULAR HEMOGLOBIN,[4],25.2 pg
same,MEAN CORPUSCULAR HEMOGLOBIN CONCENTRATION,[4],39.87 G/DL
same,MEAN CORPUSCULAR VOLUME,[4],63.03 fL

# Reference: ChEMBL document CHEMBL3885881, “DrugMatrix”
